From ChEMBL document CHEMBL5465560, “Selectivity Literature for EUbOPEN Chemogenomic Library” (2024) come the findings set out here.

Assay [1] addresses Rho-associated protein kinase 2 (Homo sapiens, UniProt O75116). Kind of assay: Selectivity interaction (Ambit KINOMEscan and KiNATiv profiling in Jurkat cells) EUB0000090b ROCK2. It is filed as cell-based. Conditions: at 1 µM.
For assay [2], the target named is Mitogen-activated protein kinase kinase kinase 4 (Homo sapiens) (UniProt Q9Y6R4). Briefly: Selectivity interaction (KinomeScan (DiscoverX)) EUB0001079a MAP3K4. Conditions: at 1 µM.
Mitogen-activated protein kinase kinase kinase 4 (Homo sapiens), sequence (Q9Y6R4 whole entry): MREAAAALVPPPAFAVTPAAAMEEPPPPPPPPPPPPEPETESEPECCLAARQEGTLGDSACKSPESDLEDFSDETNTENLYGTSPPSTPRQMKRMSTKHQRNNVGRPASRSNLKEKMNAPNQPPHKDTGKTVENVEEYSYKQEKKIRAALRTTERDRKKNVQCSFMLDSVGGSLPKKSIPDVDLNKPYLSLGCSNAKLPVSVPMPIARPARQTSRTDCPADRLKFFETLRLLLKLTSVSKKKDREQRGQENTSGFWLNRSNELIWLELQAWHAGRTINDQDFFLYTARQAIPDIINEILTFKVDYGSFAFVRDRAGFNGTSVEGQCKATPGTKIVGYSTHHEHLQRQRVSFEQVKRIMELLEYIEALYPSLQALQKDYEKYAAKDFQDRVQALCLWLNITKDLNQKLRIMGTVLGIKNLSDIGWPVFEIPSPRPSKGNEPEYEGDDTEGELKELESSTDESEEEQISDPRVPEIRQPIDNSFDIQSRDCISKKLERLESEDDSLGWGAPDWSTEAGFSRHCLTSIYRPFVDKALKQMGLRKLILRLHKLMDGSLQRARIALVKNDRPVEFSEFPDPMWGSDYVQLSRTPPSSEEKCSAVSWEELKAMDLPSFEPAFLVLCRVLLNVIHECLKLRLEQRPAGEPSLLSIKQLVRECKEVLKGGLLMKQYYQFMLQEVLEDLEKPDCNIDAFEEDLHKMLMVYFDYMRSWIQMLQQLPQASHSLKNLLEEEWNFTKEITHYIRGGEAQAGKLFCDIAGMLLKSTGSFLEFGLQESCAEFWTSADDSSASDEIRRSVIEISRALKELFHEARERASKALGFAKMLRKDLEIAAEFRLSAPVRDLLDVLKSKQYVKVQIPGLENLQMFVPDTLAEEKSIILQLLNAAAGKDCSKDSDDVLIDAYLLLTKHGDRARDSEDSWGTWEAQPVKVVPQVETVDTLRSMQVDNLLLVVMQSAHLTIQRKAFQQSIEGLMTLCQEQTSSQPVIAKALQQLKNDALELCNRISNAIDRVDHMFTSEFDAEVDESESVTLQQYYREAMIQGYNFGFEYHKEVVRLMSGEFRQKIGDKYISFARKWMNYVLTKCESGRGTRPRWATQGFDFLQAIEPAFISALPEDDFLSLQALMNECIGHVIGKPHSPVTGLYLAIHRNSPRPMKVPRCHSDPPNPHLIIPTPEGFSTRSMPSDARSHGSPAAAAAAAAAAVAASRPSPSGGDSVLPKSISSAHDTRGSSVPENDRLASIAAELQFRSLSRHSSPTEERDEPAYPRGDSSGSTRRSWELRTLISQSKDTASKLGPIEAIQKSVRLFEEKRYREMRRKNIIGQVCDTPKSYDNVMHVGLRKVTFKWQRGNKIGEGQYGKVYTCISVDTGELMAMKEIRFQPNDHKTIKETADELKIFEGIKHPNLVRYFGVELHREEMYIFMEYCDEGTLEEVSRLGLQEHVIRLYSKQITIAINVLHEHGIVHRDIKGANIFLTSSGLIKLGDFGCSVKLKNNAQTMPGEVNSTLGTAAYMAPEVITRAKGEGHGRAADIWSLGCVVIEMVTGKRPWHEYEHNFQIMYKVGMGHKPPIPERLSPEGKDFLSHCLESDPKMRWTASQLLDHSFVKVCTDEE
Assay [3] has as its target Mitogen-activated protein kinase 8 (Homo sapiens, UniProt P45983). Briefly: Selectivity interaction (Enyzmatic assay) EUB0000601a MAPK8.
For assay [4], the target named is T1, Cyclin-dependent kinase 11A (Homo sapiens) (UniProt Q9UQ88).
T1 sequence (whole entry): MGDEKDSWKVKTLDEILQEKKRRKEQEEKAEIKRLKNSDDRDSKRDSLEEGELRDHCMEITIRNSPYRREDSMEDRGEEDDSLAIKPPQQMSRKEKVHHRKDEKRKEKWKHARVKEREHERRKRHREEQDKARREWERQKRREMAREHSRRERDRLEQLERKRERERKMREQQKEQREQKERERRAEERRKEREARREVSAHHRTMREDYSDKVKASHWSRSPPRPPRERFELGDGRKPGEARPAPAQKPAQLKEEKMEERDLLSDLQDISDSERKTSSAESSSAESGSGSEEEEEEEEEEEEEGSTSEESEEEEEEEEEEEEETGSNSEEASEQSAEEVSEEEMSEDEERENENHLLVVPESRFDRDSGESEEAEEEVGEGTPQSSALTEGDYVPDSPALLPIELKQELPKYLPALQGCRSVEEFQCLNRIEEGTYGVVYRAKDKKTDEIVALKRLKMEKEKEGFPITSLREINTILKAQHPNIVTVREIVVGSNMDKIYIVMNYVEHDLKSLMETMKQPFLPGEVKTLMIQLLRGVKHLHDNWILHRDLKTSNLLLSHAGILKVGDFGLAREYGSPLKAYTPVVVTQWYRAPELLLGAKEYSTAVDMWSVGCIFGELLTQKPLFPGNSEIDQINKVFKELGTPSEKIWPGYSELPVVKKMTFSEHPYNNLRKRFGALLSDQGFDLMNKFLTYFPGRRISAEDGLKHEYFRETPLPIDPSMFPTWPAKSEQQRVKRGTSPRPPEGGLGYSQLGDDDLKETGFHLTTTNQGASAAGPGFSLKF
Kind of assay: Selectivity interaction (KinomeScan (DiscoverX)) EUB0001619a CDK11A. To be noted: at 1 µM.

Assay [5] concerns the target T2, NUAK family SNF1-like kinase 2 (Homo sapiens) (UniProt Q9H093).
T2 sequence (whole entry): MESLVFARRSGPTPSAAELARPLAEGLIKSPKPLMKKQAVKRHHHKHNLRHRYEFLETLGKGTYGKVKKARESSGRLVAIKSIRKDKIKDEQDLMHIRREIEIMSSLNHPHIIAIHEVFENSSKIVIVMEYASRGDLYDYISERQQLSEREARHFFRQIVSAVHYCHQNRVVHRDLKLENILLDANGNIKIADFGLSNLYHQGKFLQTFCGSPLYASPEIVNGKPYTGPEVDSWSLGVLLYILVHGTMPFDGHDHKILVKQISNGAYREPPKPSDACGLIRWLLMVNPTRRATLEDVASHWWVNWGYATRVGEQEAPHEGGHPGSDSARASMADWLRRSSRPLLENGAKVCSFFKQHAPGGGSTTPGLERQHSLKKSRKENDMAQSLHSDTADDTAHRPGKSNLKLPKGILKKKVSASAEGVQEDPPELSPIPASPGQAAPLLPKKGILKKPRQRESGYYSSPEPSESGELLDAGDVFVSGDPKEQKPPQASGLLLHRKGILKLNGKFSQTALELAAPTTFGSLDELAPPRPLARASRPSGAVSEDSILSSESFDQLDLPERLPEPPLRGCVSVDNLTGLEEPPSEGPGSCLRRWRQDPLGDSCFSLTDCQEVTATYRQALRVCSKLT
Kind of assay: Selectivity interaction (KinomeScan (DiscoverX)) EUB0001619a NUAK2. To be noted: at 1 µM.

Assay [6] deals with T3, Phosphatidylinositol 4,5-bisphosphate 3-kinase catalytic subunit delta isoform (Homo sapiens) (UniProt O00329).
T3 sequence (whole entry): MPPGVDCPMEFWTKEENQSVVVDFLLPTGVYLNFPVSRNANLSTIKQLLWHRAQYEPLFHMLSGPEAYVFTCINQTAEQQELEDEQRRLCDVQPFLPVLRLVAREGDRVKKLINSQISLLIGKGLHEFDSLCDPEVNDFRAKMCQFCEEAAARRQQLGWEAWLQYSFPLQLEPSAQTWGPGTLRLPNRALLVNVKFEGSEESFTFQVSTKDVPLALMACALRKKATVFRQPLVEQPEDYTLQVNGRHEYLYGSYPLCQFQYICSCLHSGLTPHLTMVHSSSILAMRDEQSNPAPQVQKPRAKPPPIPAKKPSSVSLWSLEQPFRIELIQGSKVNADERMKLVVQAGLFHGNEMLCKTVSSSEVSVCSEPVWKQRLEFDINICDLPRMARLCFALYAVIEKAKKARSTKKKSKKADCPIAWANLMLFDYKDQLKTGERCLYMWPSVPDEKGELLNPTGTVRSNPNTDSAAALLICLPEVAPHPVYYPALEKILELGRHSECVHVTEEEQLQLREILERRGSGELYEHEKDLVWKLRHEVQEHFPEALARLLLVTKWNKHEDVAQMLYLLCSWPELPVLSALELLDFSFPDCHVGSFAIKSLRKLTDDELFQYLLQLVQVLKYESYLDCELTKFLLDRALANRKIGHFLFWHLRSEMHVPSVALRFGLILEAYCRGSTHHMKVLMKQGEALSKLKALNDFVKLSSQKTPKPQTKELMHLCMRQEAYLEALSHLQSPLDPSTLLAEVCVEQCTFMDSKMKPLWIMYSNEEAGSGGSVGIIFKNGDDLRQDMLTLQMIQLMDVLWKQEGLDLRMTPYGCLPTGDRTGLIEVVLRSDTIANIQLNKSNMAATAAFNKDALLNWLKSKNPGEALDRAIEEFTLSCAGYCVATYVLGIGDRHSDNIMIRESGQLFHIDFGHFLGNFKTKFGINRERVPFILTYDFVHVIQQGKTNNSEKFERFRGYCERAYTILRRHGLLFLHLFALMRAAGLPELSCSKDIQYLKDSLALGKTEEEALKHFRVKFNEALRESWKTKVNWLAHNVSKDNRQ
Briefly: Selectivity interaction (ActivX KiNativ screen (kinase selectivity in THP-1 cell lysates)) EUB0000639a PIK3CD. Type of assay: subcellular. Conditions: lysate, at 0.04 µM.

Assay [7] addresses Cyclin-dependent kinase 16 (Homo sapiens) (UniProt Q00536). Kind of assay: Selectivity interaction (KinomeScan (DiscoverX)) EUB0000695a CDK16. Conditions: at 100 nM.

Cyclin-dependent kinase 16 (Homo sapiens), sequence (Q00536 whole entry): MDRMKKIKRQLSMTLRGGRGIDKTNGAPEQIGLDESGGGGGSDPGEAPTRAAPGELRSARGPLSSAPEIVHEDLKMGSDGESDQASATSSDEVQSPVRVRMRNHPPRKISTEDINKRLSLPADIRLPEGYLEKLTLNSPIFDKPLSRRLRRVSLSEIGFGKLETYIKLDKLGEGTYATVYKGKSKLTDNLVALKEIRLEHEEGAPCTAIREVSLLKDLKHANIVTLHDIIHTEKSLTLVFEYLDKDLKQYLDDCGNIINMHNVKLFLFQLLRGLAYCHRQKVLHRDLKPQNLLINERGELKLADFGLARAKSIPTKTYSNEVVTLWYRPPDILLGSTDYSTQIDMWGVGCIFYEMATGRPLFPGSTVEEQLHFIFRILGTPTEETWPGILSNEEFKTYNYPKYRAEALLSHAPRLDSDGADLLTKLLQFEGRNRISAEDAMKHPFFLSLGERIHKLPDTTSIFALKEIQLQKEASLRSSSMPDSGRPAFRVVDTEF
Mitogen-activated protein kinase 8, sequence (P45983 whole entry): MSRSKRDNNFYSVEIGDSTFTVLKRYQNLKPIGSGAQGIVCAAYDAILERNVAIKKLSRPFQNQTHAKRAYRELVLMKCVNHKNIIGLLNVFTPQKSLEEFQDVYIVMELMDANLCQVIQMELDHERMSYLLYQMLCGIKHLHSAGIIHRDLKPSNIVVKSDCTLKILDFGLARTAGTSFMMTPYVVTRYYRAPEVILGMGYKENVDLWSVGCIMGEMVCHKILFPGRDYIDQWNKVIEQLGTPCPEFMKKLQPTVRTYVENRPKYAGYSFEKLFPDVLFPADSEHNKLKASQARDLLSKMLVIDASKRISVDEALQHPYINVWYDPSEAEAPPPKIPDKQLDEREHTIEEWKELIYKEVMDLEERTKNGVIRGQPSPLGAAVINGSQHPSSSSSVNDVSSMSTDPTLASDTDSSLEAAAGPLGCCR
Rho-associated protein kinase 2, sequence (O75116 whole entry, looked up): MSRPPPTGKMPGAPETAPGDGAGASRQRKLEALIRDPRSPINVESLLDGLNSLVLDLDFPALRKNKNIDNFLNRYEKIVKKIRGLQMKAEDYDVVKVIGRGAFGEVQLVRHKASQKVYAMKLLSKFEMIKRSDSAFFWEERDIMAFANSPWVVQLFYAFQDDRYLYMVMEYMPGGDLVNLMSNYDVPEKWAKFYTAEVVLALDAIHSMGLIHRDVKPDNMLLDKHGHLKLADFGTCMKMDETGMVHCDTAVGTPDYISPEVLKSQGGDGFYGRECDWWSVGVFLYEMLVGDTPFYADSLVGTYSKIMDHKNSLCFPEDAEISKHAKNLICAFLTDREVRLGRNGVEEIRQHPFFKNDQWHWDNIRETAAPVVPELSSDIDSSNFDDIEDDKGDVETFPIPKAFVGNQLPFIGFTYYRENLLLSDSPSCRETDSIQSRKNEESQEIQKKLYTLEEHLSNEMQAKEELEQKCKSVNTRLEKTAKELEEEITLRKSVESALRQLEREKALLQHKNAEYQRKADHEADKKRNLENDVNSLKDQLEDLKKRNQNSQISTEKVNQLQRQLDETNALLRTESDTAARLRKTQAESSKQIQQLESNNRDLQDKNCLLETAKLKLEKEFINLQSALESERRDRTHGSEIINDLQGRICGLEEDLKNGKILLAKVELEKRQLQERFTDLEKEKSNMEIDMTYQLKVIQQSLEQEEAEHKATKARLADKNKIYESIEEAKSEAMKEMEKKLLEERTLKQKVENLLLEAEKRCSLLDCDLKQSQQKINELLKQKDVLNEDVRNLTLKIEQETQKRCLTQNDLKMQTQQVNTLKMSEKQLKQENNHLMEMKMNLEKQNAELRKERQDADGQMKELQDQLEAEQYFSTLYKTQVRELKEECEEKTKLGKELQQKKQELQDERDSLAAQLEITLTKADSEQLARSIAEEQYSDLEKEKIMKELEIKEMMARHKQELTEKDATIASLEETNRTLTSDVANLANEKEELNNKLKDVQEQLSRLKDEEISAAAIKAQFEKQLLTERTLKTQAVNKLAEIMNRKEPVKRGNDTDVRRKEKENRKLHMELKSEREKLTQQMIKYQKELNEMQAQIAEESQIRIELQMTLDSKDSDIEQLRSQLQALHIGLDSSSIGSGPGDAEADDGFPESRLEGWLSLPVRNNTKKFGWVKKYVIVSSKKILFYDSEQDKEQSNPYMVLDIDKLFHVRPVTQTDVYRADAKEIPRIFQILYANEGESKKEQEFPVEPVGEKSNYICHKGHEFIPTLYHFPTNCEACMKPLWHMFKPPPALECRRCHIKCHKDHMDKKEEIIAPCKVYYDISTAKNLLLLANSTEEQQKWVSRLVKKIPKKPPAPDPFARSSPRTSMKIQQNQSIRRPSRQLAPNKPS

As to `CN(C)C/C=C/C(=O)Nc1ccc(C(=O)N2CCCC(Nc3ncc(Cl)c(-c4c[nH]c5ccccc45)n3)C2)cc1` (configuration not stated), in assay [1], the % of control worked out at 69%.

Take `Nc1cnc(N2CCc3cc(S(=O)(=O)Nc4c(F)cc(Cl)cc4F)cc(N4CCCC4=O)c32)nc1` [TP-020n]: the % of control in assay [2] is 85%.

In turn, `CCc1cc(Nc2nccc(-c3c(-c4ccc(OC)c(C(=O)Nc5c(F)cccc5F)c4)nc4ccccn34)n2)c(OC)cc1N1CCC(N2CCN(S(C)(=O)=O)CC2)CC1` displayed an IC50 in assay [3] greater than 10 µM.

Turning to `N#Cc1cccc(-c2c[nH]c3ncnc(N4CCOCC4)c23)c1`, the % of control in assay [4] is 48%; in assay [5], 18%.

`CC[C@@H]1[C@H](F)C(=O)N[C@@H]1COc1nccc2cc(C(N)=O)c(OC)cc12` [ZIMLOVISERTIB]: the % of inhibition in assay [6] was found to be 3.5%.

Turning to `Cc1cc(F)c(C(=O)Nc2cccc(-c3nncn3C(C)C)n2)cc1-n1cnc(C2CC2)c1`, the % of control in assay [7] came to 75%.

Usually IC50 stands for the concentration that inhibits the measured activity by half. The low end stands for greater potency in that assay, the high end for weaker potency in that assay.
